Test results taken from US20230136600A1, “Method and device for screening antigen epitope polypeptide” (priority 2020, published 2023).

Legend:
Balb/c mice [1] = assay: Detection of peptide immunogenicity by polypeptide chip: vaccine peptide-specific signal sequencing (timing-sequence response, Fisher exact test); type: in vivo; settings: Embodiment IV; 7-peptide mixed solution with adjuvant: Mix 1 AddaVax, 2 Imject Alumn, 3 Alhydrogel, 4 Adju-Phos, 5 MA103A, 6 MA103B
Balb/c mice [2] = assay: Polypeptide chip-based vaccine immunogenicity scoring system; type: in vivo; set-up: key to A2: whether the 95 percentile of the last sampling is increased compared with the end point: Y = rise; N = no rise; settings: Embodiment III, polypeptide-KLH; for A1: difference between a highest median and a D 0 median (95 percentile) / A2: whether the 95 percentile of the last sampling is increased compared with the end point: Mix1-10; for Total single peptide: A*3 + B*2 + C*1; for A: 95 percentile grouping number score / B: Mouse performance score: total score = 5; for C1: #A timing-sequence response peptide fragment set / C2: #B vaccine specificity peptide fragment set / C3: Intersection of A and B / C4: Percentage of the intersection in set B / C: Timing-sequence response and specificity score: value of the whole mix

Substance	#A timing-sequence response peptide fragment set (Balb/c mice [1])	#B vaccine specificity peptide fragment set (Balb/c mice [1])	Intersection of A and B (Balb/c mice [1])	Mode I (Balb/c mice [1])	Mode II (Balb/c mice [1])	B1: D 0-D 14 95 percentile rise in the number of mice (Balb/c mice [2])	B2: D 0-D 21 95 percentile rise in the number of mice (Balb/c mice [2])	B3: D 14-D 21 95 percentile rise in the number of mice (Balb/c mice [2])	B4: D 21-D 28 95 percentile rise in the number of mice (Balb/c mice [2])	A1: difference between a highest median and a D 0 median (95 percentile) (Balb/c mice [2])	A2: whether the 95 percentile of the last sampling is increased compared with the end point (Balb/c mice [2])	Total single peptide (Balb/c mice [2])	A: 95 percentile grouping number score (Balb/c mice [2])	B: Mouse performance score (Balb/c mice [2])	C1: #A timing-sequence response peptide fragment set (Balb/c mice [2])	C2: #B vaccine specificity peptide fragment set (Balb/c mice [2])	C3: Intersection of A and B (Balb/c mice [2])	C4: Percentage of the intersection in set B (Balb/c mice [2])	C: Timing-sequence response and specificity score (Balb/c mice [2])
3 (SVYAWNRKR; SARS-CoV-2) [compound 3]	123	1244	2	73	53														
5 (GRLQSLQTY; SARS-CoV-2) [compound 5]	260	1244	3	102	171														
4 (ALDPLSETKCT; SARS-CoV-2) [compound 4]	203	1244	0	23	183														
1 (YTNDKACPL; SARS-CoV-2) [compound 1]	237	1244	0	87	157														
YTNDKACPL (SARS-CoV-2) [SEQ ID NO:1]						2	2	1	1	0.11	Y	18.3	5	1.4	257	682	3	0.440	0.5
NVAKSEFDRDAA [SEQ ID NO:26]						3	3	1	0	0.06	N	6.9	1	1.7	352	541	1	0.185	0.5
FHPLADNKF (SARS-CoV-2) [SEQ ID NO:17]						3	2	0	2	0.10	Y	17.4	4.5	1.7	133	431	1	0.232	0.5
2 (RGGSYTNDKAC; SARS-CoV-2) [compound 2]	100	1244	3	74	31														
ERSEKSYEL (SARS-CoV-2) [SEQ ID NO:28]						1	2	0	1	0.11	N	14.3	4	0.9	1212	389	1	0.257	0.5
EVFAQVKQIY (SARS-CoV-2) [SEQ ID NO:13]						3	3	0	2	0.08	Y	14.8	3.5	1.9	1212	389	1	0.257	0.5
DSFKEELDKY (SARS-CoV-2) [SEQ ID NO:33]						3	3	1	1	0.13	N	18.3	4.5	1.9	288	268	4	1.493	1
KLDNYYKKDNSY (SARS-CoV-2) [SEQ ID NO:32]						3	3	1	2	0.12	Y	20.2	5	2.1	1494	190	2	1.053	1
YEGNSPFH [SEQ ID NO:18]						3	2	0	2	0.06	Y	9.9	2	1.7	1212	389	1	0.257	0.5
